Measurements taken from US20220306617A1, “SUBSTITUTED 1,3-PHENYL HETEROARYL DERIVATIVES AND THEIR USE IN THE TREATMENT OF DISEASE” (NOVARTIS AG, priority 2019, published 2022).
Counter-ions that a name gives are not always drawn.

Target: T1, abc isoform of human TMEM16A channel expressed in CHO cells (Homo sapiens, UniProt Q5XXA6, DEL476-501)
T1 construct: expressed in transfected cells; host or cells: CHO cells, doxycycline-inducible expression under Blasticidin/Zeocin selection
T1 sequence (Q5XXA6 with tags, fused parts or gaps isoform Q5XXA6-5 DEL539-564): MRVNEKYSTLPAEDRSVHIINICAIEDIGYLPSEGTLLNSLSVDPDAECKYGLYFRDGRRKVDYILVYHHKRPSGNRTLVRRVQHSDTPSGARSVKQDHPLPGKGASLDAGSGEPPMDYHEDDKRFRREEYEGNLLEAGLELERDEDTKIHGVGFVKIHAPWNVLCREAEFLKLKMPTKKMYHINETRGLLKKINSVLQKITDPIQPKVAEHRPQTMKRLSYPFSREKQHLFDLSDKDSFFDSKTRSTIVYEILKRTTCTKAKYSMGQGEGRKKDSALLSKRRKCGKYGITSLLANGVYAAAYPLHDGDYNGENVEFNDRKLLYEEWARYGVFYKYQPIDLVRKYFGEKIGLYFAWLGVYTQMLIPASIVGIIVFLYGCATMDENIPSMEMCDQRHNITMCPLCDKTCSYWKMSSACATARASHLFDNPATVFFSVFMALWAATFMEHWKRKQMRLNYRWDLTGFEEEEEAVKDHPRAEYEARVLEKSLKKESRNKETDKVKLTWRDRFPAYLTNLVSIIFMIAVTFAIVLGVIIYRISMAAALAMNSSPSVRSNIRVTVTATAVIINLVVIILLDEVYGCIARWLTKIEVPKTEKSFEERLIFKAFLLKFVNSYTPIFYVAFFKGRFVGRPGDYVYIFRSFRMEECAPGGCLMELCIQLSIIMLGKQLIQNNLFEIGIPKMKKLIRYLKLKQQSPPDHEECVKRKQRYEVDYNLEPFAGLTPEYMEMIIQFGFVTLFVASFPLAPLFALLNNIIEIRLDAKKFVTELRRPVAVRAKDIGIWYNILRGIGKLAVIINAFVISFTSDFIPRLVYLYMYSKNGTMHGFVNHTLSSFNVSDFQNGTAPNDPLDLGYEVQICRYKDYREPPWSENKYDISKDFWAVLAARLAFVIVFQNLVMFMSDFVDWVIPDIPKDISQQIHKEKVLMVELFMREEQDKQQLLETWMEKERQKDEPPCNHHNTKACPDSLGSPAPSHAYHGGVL
Test: Automated patch clamping (QPatch) assay to measure TMEM16A activity in whole-cell
Format: cell-based
Settings: for EC50: CHO cells expressing human TMEM16A (abc), whole-cell automated patch clamp, Hill fit, read-out: TMEM16A QPATCH assay EC50 V3 EC50; for Emax: CHO, maximum current at highest dose relative to reference potentiator at maximal concentration (upper limit) and vehicle (lower limit), read-out: TMEM16A QPATCH assay EC50 V3 Assay Window (% TMEM16A max activation)
In short: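 CHO cells with doxycycline-induced (1 μg/mL, 18-24 h) human TMEM16A abc isoform; QPatch whole-cell recording, hold −70 mV, step +70 mV 1500 ms, then −90 to +70 mV ramp. Compounds in 0.3% DMSO; EC50 by Hill fit; % max activation relative to vehicle baseline and reference potentiator maximum.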

Compound | EC50 | Emax
CCC(CC)NC(=O)c1cnc(-c2cccc(-c3cc(C(=O)N[C@@H](C)C(=O)OCc4ccccc4)n[nH]3)c2)o1 [Example 3.64, (S)-Benzyl 2-(5-(3-(5-(Pentan-3-Ylcarbamoyl)Oxazol-2-Yl)Phenyl)-1H-Pyrazole-3-Carboxamido)Propanoate Trifluoroacetate] | 0.15 µM | 72%
CCC(CC)NC(=O)c1cnc(-c2cccc(-c3cc(C(=O)N[C@@H](C(=O)OC)c4ccccc4)n[nH]3)c2)o1 [Example 3.65, (R)-Methyl 2-(5-(3-(5-(Pentan-3-Ylcarbamoyl)Oxazol-2-Yl)Phenyl)-1H-Pyrazole-3-Carboxamido)-2-Phenylacetate Trifluoroacetate] | 0.78 µM | 28%
CCOC(=O)[C@H](Cc1ccccc1)NC(=O)c1cc(-c2cccc(-c3ncc(C(=O)NC(CC)CC)o3)c2)[nH]n1 [Example 3.66, (S)-Ethyl 2-(5-(3-(5-(Pentan-3-Ylcarbamoylyl-Carbamoyl)Oxazol-2-Yl)Phenyl)-1H-Pyrazole-3-Carboxamido)-3-Phenylpropanoate Trifluoroacetate] | 0.14 µM | 80%
CCC(CC)NC(=O)c1cnc(-c2cccc(-c3cc(C(=O)NCC4(N5CCOCC5)CCCCC4)n[nH]3)c2)o1 [Example 3.67, 2-(3-(3-(((1-Morpholinocyclohexyl)Methyl)Carbamoyl)-1H-Pyrazol-5-Yl)Phenyl)-N-(Pentan-3-Yl)Oxazole-5-Carboxamide Trifluoroacetate] | 0.79 µM | 68%
CCC(CC)NC(=O)c1cc(-c2cccc(-c3ncc(C(=O)NC(C)(C)CCc4ccccc4)o3)c2)[nH]n1 [Example 3.68, N-(2-Methyl-4-Phenylbutan-2-Yl)-2-(3-(3-(Pentan-3-Ylcarbamoylyl-Carbamoyl)-1H-Pyrazol-5-Yl)Phenyl)Oxazole-5-Carboxamide] | 0.16 µM | 88%
CCC(CC)NC(=O)c1cc(-c2cccc(-c3ncc(C(=O)NC(C)(C)C(=O)OC(C)(C)C)o3)c2)[nH]n1 [Example 3.69, Tert-Butyl 2-Methyl-2-(2-(3-(3-(Pentan-3-Ylcarbamoyl)-1H-Pyrazol-5-Yl)Phenyl)Oxazole-5-Carboxamido)Propanoatehexafluorophosphatepropanoate Hexafluorophosphate] | 0.26 µM | 76%
CCC(CC)NC(=O)c1cc(-c2cccc(-c3ncc(C(=O)N[C@@H](C)C4CC4)o3)c2)nn1CCO [Example 4.0, (S)-N-(1-Cyclopropylethyl)-2-(3-(1-(2-Hydroxyethyl)-5-(Pentan-3-Ylcarbamoyl)-1 H-Pyrazol-3-Yl)Phenyl)Oxazole-5-Carboxamide] | 0.33 µM | 106%
CCOC(=O)[C@@H](NC(=O)c1cnc(-c2cccc(-c3cc(C(=O)NC(CC)CC)n(CCO)n3)c2)o1)C(C)C [Example 4.1, (S)-Ethyl 2-(2-(3-(1-(2-Hydroxyethyl)-5-(Pentan-3-Ylcarbamoyl)-1H-Pyrazol-3-Yl)Phenyl)Oxazole-5-Carboxamido)-3-Methylbutanoate] | 0.027 µM | 81%
CCOC(=O)[C@@H](NC(=O)c1cnc(-c2cccc(-c3cc(C(=O)N[C@@H](C)C4CC4)n(CCO)n3)c2)o1)C(C)C [Example 4.2, (S)-Ethyl 2-(2-(3-(5-(((S)-1-Cyclopropylethyl)Carbamoyl)-1-(2-Hydroxyethyl)-1H-Pyrazol-3-Yl)Phenyl)Oxazole-5-Carboxamido)-3-Methylbutanoate] | 0.68 µM | 125%
COC(=O)[C@@H](NC(=O)c1cnc(-c2cccc(-c3cc(C(=O)NC(C4CC4)C4CC4)n(CCO)n3)c2)o1)C(C)C [Example 4.3, (S)-Methyl 2-(2-(3-(5-((Dicyclopropylmethyl)Carbamoyl)-1-(2-Hydroxyethyl)-1H-Pyrazol-3-Yl)Phenyl)Oxazole-5-Carboxamido)-3-Methylbutanoate] | 0.09 µM | 167%
CCOC(=O)[C@@H](NC(=O)c1cnc(-c2cccc(-c3cc(C(=O)NC(C4CC4)C4CC4)n(CCO)n3)c2)o1)C(C)C [Example 4.4, (S)-Ethyl 2-(2-(3-(5-((Dicyclopropylmethyl)Carbamoyl)-1-(2-Hydroxyethyl)-1 H-Pyrazol-3-Yl)Phenyl)Oxazole-5-Carboxamido)-3-Methylbutanoate] | 0.13 µM | 172%
CCOC(=O)[C@@H](NC(=O)c1cnc(-c2cccc(-c3cc(C(=O)NC(C4CC4)C4CC4)n(CCCO)n3)c2)o1)C(C)C [Example 4.5, (S)-Ethyl 2-(2-(3-(5-((Dicyclopropylmethyl)Carbamoyl)-1-(3-Hydroxypropyl)-1 H-Pyrazol-3-Yl)Phenyl)Oxazole-5-Carboxamido)-3-Methylbutanoate] | 0.12 µM | 154%
CCOC(=O)[C@@H](NC(=O)c1cc(-c2cccc(-c3ncc(C(=O)NC(CC)CC)o3)c2)nn1CCO)C(C)C [Example 5.0, (S)-ethyl 2-(1-(2-hydroxyethyl)-3-(3-(5-(pentan-3-ylcarbamoyl)oxazol-2-yl)phenyl)-1 H-pyrazole-5-carboxamido)-3-methylbutanoate] | 0.04 µM | 110%
CCC(CC)NC(=O)c1cnc(-c2cccc(-c3cc(C(=O)N[C@H](C)C4CC4)n(CCO)n3)c2)o1 [Example 5.1, (R)-2-(3-(5-((1-Cyclopropylethyl)Carbamoyl)-1-(2-Hydroxyethyl)-1H-Pyrazol-3-Yl)Phenyl)-N-(Pentan-3-Yl)Oxazole-5-Carboxamide] | 0.32 µM | 125%
O=C(NC1CCCC1)c1cnc(-c2cccc(-c3cc(C(=O)NC4CCCC4)n(CCCO)n3)c2)o1 [Example 5.2, N-Cyclopentyl-2-(3-(5-(Cyclopentylcarbamoyl)-1-(3-Hydroxypropyl)-1H-Pyrazol-3-Yl)Phenyl)Oxazole-5-Carboxamide] | 0.84 µM | 201%
CCOC(=O)[C@@H](NC(=O)c1cnc(-c2cccc(-c3cc(C(=O)NC(CC)CC)n(CCN4CCOCC4)n3)c2)o1)C(C)C [Example 6.0, (S)-ethyl 3-methyl-2-(2-(3-(1-(2-morpholinoethyl)-5-(pentan-3-ylcarbamoyl)-1H-pyrazol-3-yl)phenyl)oxazole-5-carboxamido)butanoate] | 0.31 µM | 90%
COC(=O)[C@@H](NC(=O)c1cnc(-c2cccc(-c3cc(C(=O)NC(C4CC4)C4CC4)n(CC(O)C(F)(F)F)n3)c2)o1)C(C)C (stereo partly drawn) [Example 6.1, (2S)-Methyl 2-(2-(3-(5-((Dicyclopropylmethyl)Carbamoyl)-1-(3,3,3-Trifluoro-2-Hydroxypropyl)-1H-Pyrazol-3-Yl)Phenyl)Oxazole-5-Carboxamido)-3-Methylbutanoate] | 0.12 µM | 220%
CCC(CC)NC(=O)c1cnc(-c2cccc(-c3cc(C(=O)N[C@@H](C)C4CC4)n(C)n3)c2)o1 [Example 6.2, (S)-2-(3-(5-((1-Cyclopropylethyl)Carbamoyl)-1-Methyl-1H-Pyrazol-3-Yl)Phenyl)-N-(Pentan-3-Yl)Oxazole-5-Carboxamide] | 0.05 µM | 131%
C[C@H](NC(=O)c1cnc(-c2cccc(-c3cc(C(=O)N[C@@H](C)C4CC4)n(CC(C)(C)O)n3)c2)o1)C1CC1 [Example 6.3, N-((S)-1-Cyclopropylethyl)-2-(3-(5-(((S)-1-Cyclopropylethyl)Carbamoyl)-1-(2-Hydroxy-2-Methylpropyl)-1H-Pyrazol-3-Yl)Phenyl)Oxazole-5-Carboxamide] | 0.25 µM | 73%
CCOC(=O)[C@@H](NC(=O)c1cc(-c2cccc(-c3ncc(C(=O)NC(CC)CC)o3)c2)nn1CCN1CCOCC1)C(C)C [Example 7.0, (S)-Ethyl 3-Methyl-2-(1-(2-Morpholinoethyl)-3-(3-(5-(Pentan-3-Ylcarbamoyl)Oxazol-2-Yl)Phenyl)-1H-Pyrazole-5-Carboxamido)Butanoate] | 0.44 µM | 175%
CCC(CC)NC(=O)c1cnc(-c2cccc(-c3cc(C(=O)N[C@@H](C)C4CC4)n(CC(C)(C)O)n3)c2)o1 [Example 8.0, (S)-2-(3-(5-((1-Cyclopropylethyl)Carbamoyl)-1-(2-Hydroxy-2-Methylpropyl)-1H-Pyrazol-3-Yl)Phenyl)-N-(Pentan-3-Yl)Oxazole-5-Carboxamide] | 0.2 µM | 106%
